Values after ≈ are worked out from the molar mass of the structure shown. Values joined by “and” are separate entries in the source; they are usually repeats but may differ in a detail not shown here. Identical values can stand only once.
Columns and labels:
Assay in all cases: MIC, broth microdilution (NCCLS M7-A5)
Format in all cases: cell-based
[1] = test system: E. faecalis - Van^s (VSE 29212); set-up: VSE 29212 MIC: unit not given here; conditions: for VSE 29212 MIC: Table 4, averages of 2 experiments, * single experiment, both values given when differing >2 fold; for MIC: E. faecalis - Van^s, Table 3
Method: (§1) Minimum inhibitory concentrations (MICs) are determined according to the National Committee for Clinical Laboratory Standards (NCCLS) susceptibility test guideline M7-A5 (Ferraro, M. 2001 Methods for Dilution Antimicrobial Susceptibility Tests for Bacteria that Grow Aerobically; Approved Standard (NCCLS). National Committee for Clinical Laboratory Standards (NCCLS), Villanova) to quantify the antimicrobial activity of the compounds of the present embodiment against various pathogenic bacteria. Susceptibility testing is performed by broth microdilution in accordance with National Committee for Clinical Laboratory Standards (NCCLS) guidelines. This procedure entails combining the test compounds with a standardized number of cells, incubating at the temperature and amount of time appropriate for each particular organism, and visually scoring the concentration at which no growth was apparent in the test wells. The panel includes both drug sensitive and drug resistant isolates of both gram-positive and gram-negative bacteria, including: S. aureus (both MSSA and MRSA), S. pneumoniae (wild type and penicillin-resistant), vancomycin-sensitive E. faecalis, vancomycin-resistant E. faecium, E. coli, H. influenzae and P. aeruginosa.
(§2) Susceptibility testing was performed by broth microdilution in accordance with National Committee for Clinical Laboratory Standards (NCCLS) guidelines. Antimicrobial data for compounds of Formulae II, III, IV, VI, VII, VIII, IX, XII, XIII, XIV, XV′, XV, XVI, XVII, XVIII, XXI′, XXII, XXIII, XXIV, and XXV are shown in Tables 3, 4 and 5.

[2] = test system: S. epidermidis - ATCC 700582; set-up: Staph Epi 700582 MIC: unit not given here; conditions: for Staph Epi 700582 MIC: Table 4, averages of 2 experiments, * single experiment, both values given when differing >2 fold; for MIC: S. epidermidis - ATCC 700582, Table 3
Method: as §1, §2

[3] = test system: S. pneumoniae - penicillin sensitive (49619); conditions: for S. pneumo 49619 Pen. S MIC: Table 4, averages of 2 experiments, * single experiment, both values given when differing >2 fold; for MIC: S. pneumoniae - penicillin sensitive, Table 3
Method: as §1, §2

[4] = test system: H. influenzae - ATCC 49766; conditions: for H. inf. 49766: Table 4 (MIC), averages of 2 experiments, * single experiment, both values given when differing >2 fold; for MIC: H. influenzae - ATCC 49766, Table 3
Method: as §1, §2

E. coli - imp = conditions: for E. coli imp MIC: Table 5; for MIC: E. coli - imp, Table 3
Method: as §1, §2

[5] = test system: E. faecium - Van^r (VRE 700221); conditions: for VRE 700221 MIC: Table 4, averages of 2 experiments, * single experiment, both values given when differing >2 fold; for MIC: E. faecium - Van^r, Table 3
Method: as §1, §2

S. aureus - MRSA (43300) = conditions: for MRSA 43300 MIC: Table 4, averages of 2 experiments, * single experiment, both values given when differing >2 fold, in µg/mL; for MIC: S. aureus - MRSA, Table 3
Method: as §1, §2

[6] = test system: S. pneumoniae - penicillin resistant (51915); conditions: for S. pneumo 51915 Pen R MIC: Table 4, averages of 2 experiments, * single experiment, both values given when differing >2 fold; for MIC: S. pneumoniae - penicillin resistant, Table 3
Method: as §1, §2

S. aureus - MSSA (29213) = conditions: for MSSA 29213 MIC: Table 4, averages of 2 experiments, * single experiment, both values given when differing >2 fold, in µg/mL; for MIC: S. aureus - MSSA, Table 3
Method: as §1, §2

[7] = test system: S. epidermidis - ATCC 700578; set-up: Staph Epi 700578 MIC: unit not given here; conditions: for Staph Epi 700578 MIC: Table 4, averages of 2 experiments, * single experiment, both values given when differing >2 fold; for MIC: S. epidermidis - ATCC 700578, Table 3
Method: as §1, §2

[8] = test system: H. influenzae - ATCC 49247; conditions: for H. inf. 49247: Table 4 (MIC), averages of 2 experiments, * single experiment, both values given when differing >2 fold; for MIC: H. influenzae - ATCC 49247, Table 3
Method: as §1, §2

E. coli - ATCC 25922 = conditions: Table 3
Method: as §1, §2

SMILES	VSE 29212 MIC [1]	Staph Epi 700582 MIC [2]	S. pneumo 49619 Pen. S MIC ([3]; in µg/mL)	H. inf. 49766 [4]	E. coli imp MIC (E. coli - imp)	VRE 700221 MIC ([5]; in µg/mL)	MRSA 43300 MIC (S. aureus - MRSA (43300))	MSSA 29213 MIC (S. aureus - MSSA (29213))	Staph Epi 700578 MIC [7]	H. inf. 49247 [8]	S. pneumo 51915 Pen R MIC ([6]; in µg/mL)	other results
COC(=O)c1[nH]c(C(=O)OC)c(-c2c[nH]c3ccc(Cl)cc23)c1-c1c[nH]c2ccc(F)cc12 [XX]	24	8	32	>32	>32 µg/mL	>32	5	4	8			S. pneumo 51915 Pen R MIC [6]: >32, 32
COC(=O)c1[nH]cc(-c2c[nH]c3cc(Cl)c(F)cc23)c1-c1c[nH]c2ccc(F)cc12 [XXIV]	4*	2*	23*	16*	8 µg/mL	8*	1.5*	1*	2*	16*	16*	
COC(=O)c1[nH]cc(-c2c[nH]c3ccc(Br)cc23)c1-c1c[nH]c2ccc(Br)cc12 [XVI]	5	2.5	20	16 and > 32	>32, 32 ug/mL	6	2.5	1.4	2.5	>32	24	
COC(=O)c1[nH]c(C(=O)OC)c(-c2c[nH]c3ccc(Cl)cc23)c1-c1c[nH]c2ccc(Cl)cc12 [VI]												MIC [1]: 8 µg/mL (≈ 16.6 µM); MIC [2]: 4 µg/mL (≈ 8.29 µM); MIC [3]: 24 µg/mL (≈ 49.8 µM); MIC [4]: 8 µg/mL (≈ 16.6 µM); MIC (E. coli - imp): >32 µg/mL; MIC [5]: 8 µg/mL (≈ 16.6 µM); MIC [8]: 5 µg/mL (≈ 10.4 µM); MIC (E. coli - ATCC 25922): >32 µg/mL; MIC (S. aureus - MRSA (43300)): 3 µg/mL (≈ 6.22 µM); MIC [6]: 20 µg/mL (≈ 41.5 µM); MIC (S. aureus - MSSA (29213)): 3 µg/mL (≈ 6.22 µM); MIC [7]: 4 µg/mL (≈ 8.29 µM)
COC(=O)c1[nH]c(C(=O)OC)c(-c2c[nH]c3cc(F)ccc23)c1-c1c[nH]c2ccccc12 [XXV]	>32*	8*	32*	16*	>32 µg/mL	>32*	8*	4*	8*	8*	>32*	
O=C(O)c1[nH]cc(-c2c[nH]c3ccc(Cl)cc23)c1-c1c[nH]c2ccc(Cl)cc12 [VII]	>32*	16*	>32*	>32*	>32 µg/mL	>32*	16*	12*	16*	>32*	>32*	
COC(=O)c1[nH]c(C(=O)OC)c(-c2c[nH]c3ncccc23)c1-c1c[nH]c2ccc(Cl)cc12 [XIII]	16*	8*	>32*	>32*	>32 µg/mL	32*	4*	3*	8*	>32*	>32*	
COC(=O)c1[nH]cc(-c2c[nH]c3ccc(Cl)cc23)c1-c1c[nH]c2ccc(Cl)cc12 [III]												MIC [1]: 8 µg/mL (≈ 18.9 µM); MIC [2]: 4 µg/mL (≈ 9.43 µM); MIC [3]: 24 µg/mL (≈ 56.6 µM); MIC [4]: 12 µg/mL (≈ 28.3 µM); MIC (E. coli - imp): 16 µg/mL (≈ 37.7 µM); MIC [5]: 8 µg/mL (≈ 18.9 µM); MIC [8]: 16 µg/mL (≈ 37.7 µM); MIC (E. coli - ATCC 25922): >32 µg/mL; MIC (S. aureus - MRSA (43300)): 2 µg/mL (≈ 4.71 µM); MIC [6]: 24 µg/mL (≈ 56.6 µM); MIC (S. aureus - MSSA (29213)): 1.8 µg/mL (≈ 4.24 µM); MIC [7]: 4 µg/mL (≈ 9.43 µM)
COC(=O)c1[nH]cc(-c2c[nH]c3cc(Cl)c(Cl)cc23)c1-c1c[nH]c2ccc(Cl)cc12 [II]												MIC [1]: 1.5 µg/mL (≈ 3.27 µM); MIC [2]: 1 µg/mL (≈ 2.18 µM); MIC [3]: 8 µg/mL (≈ 17.4 µM); MIC [4]: 6 µg/mL (≈ 13.1 µM); MIC (E. coli - imp): 6 µg/mL (≈ 13.1 µM); MIC [5]: 2 µg/mL (≈ 4.36 µM); MIC [8]: 2 µg/mL (≈ 4.36 µM); MIC (E. coli - ATCC 25922): >32 µg/mL; MIC (S. aureus - MRSA (43300)): 1 µg/mL (≈ 2.18 µM); MIC [6]: 8 µg/mL (≈ 17.4 µM); MIC (S. aureus - MSSA (29213)): 0.8 µg/mL (≈ 1.74 µM); MIC [7]: 1 µg/mL (≈ 2.18 µM)
COC(=O)c1[nH]c(C(=O)OC)c(-c2c[nH]c3cc(F)c(Cl)cc23)c1-c1c[nH]c2ccc(Cl)cc12 [XXII]	6	2	32	4	>32 µg/mL		1.5	1.25	2.5		32	VRE 700221 MIC [5]: 16 and > 32
O=C(O)c1[nH]cc(-c2c[nH]c3cc(Cl)c(Cl)cc23)c1-c1c[nH]c2ccc(Cl)cc12 [XII]	8	6	>32	10	20 µg/mL	8	6	4	3	8	>32	
O=C(O)c1[nH]c(C(=O)O)c(-c2c[nH]c3ccc(Cl)cc23)c1-c1c[nH]c2ccc(Cl)cc12 [VIII]	>16	>16	>16	>16	>16 µg/mL	>16	>16	>16	>16	>16	>16	
COC(=O)c1[nH]c(C(=O)OC)c(-c2c[nH]c3ccc(F)cc23)c1-c1c[nH]c2ccccc12 [XXIII]	>32*	16*	>32*	>32*	>32 µg/mL	>32*	>32*	16*	>32*	>32*	>32*	
COC(=O)c1[nH]cc(-c2c[nH]c3cc(Cl)c(Cl)cc23)c1-c1c[nH]c2ncccc12 [XIV]	12	8*	32*	>32*		6	6	6	8*	>32*	24*	
COC(=O)c1[nH]cc(-c2c[nH]c3cc(F)c(Cl)cc23)c1-c1c[nH]c2ccc(Cl)cc12 [XVII]	4*	1*	16*	16*	8 µg/mL	4*	1*	1*	1*	>32*	24*	
COC(=O)c1[nH]c(C(=O)OC)c(-c2c[nH]c3ccc(F)cc23)c1-c1c[nH]c2ccc(F)cc12 [XVIII]	>32*	16*	>32*	>32*	>32 µg/mL	>32*	12*	8*	16*	>32*	>32*	
COC(=O)c1[nH]c(C(=O)OC)c(-c2c[nH]c3ccccc23)c1-c1c[nH]c2ccccc12 [IX]	>32	16		>32	>32 µg/mL	>32	>32	>32	16	>32	>32	S. pneumo 49619 Pen. S MIC [3]: 32, >32

From patent US7166634B2, “Bis-indole pyrroles useful as antimicrobials agents” (Nereus Pharmaceuticals, Inc., priority 2004, dated 2007)
